Data on seven molecules can be found in PubChem BioAssay AID2060338 (Molecular Pharmacology Branch, DTP, NCI, 2025).

Structures are written as SMILES. Where “and” joins values, the source holds several entries; their conditions need not be identical. Identical values can stand only once.

The subject of the test is 556581-035-R-J1-PDC spheroids with HUVEC/MSC, viability. Nature of the test: Anticancer human tumor 556581-035-R-J1-PDC patient-derived ovarian carcinoma cell line growth inhibition [IpAb]. The note with it: for viability, T/C: stronger effect = lower value. The procedure, abridged:
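Spheroids of 60% malignant cells, 25% HUVEC and 15% MSC were exposed to targeted agents combined with ipatasertib or abemaciclib. Doses started at or near clinical Cmax (10 microM when unknown) and fell in half-log steps.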

Where [1] appears, read: curve of first compound, second compound 0.01 µM.
Where [2] appears, read: curve of first compound, second compound 0.0316 µM.
Where [3] appears, read: curve of first compound, second compound 0.1 µM.
Setting [4] is: curve of first compound, second compound 0.316 µM.
The mark [5] stands for this setting: curve of first compound, second compound 1 µM.
Where [6] appears, read: second compound 0.01 µM, first compound 0.0316 µM.
Setting [7] is: second compound 0.01 µM, first compound 0.1 µM.
The mark [8] stands for this setting: second compound 0.0316 µM, first compound 0.0316 µM.
[9] abbreviates: second compound 0.0316 µM, first compound 0.1 µM.
The mark [10] stands for this setting: second compound 0.1 µM, first compound 0.0316 µM.
[11] abbreviates: second compound 0.1 µM, first compound 0.1 µM.
Where [12] appears, read: second compound 0.316 µM, first compound 0.0316 µM.
Setting [13] is: second compound 0.316 µM, first compound 0.1 µM.
[14] abbreviates: second compound 1 µM, first compound 0.0316 µM.
[15] abbreviates: second compound 1 µM, first compound 0.1 µM.
The mark [16] stands for this setting: second compound 0.01 µM, first compound 0.316 µM.
The mark [17] stands for this setting: second compound 0.01 µM, first compound 1 µM.
Where [18] appears, read: second compound 0.01 µM, first compound 3.16 µM.
Where [19] appears, read: second compound 0.01 µM, first compound 10 µM.
Where [20] appears, read: second compound 0.0316 µM, first compound 0.316 µM.
Where [21] appears, read: second compound 0.0316 µM, first compound 1 µM.
The mark [22] stands for this setting: second compound 0.0316 µM, first compound 3.16 µM.
The mark [23] stands for this setting: second compound 0.0316 µM, first compound 10 µM.
[24] abbreviates: second compound 0.1 µM, first compound 0.316 µM.
Setting [25] is: second compound 0.1 µM, first compound 1 µM.
The mark [26] stands for this setting: second compound 0.1 µM, first compound 3.16 µM.
The mark [27] stands for this setting: second compound 0.1 µM, first compound 10 µM.
Where [28] appears, read: second compound 0.316 µM, first compound 0.316 µM.
[29] abbreviates: second compound 0.316 µM, first compound 1 µM.
Setting [30] is: second compound 0.316 µM, first compound 3.16 µM.
Where [31] appears, read: second compound 0.316 µM, first compound 10 µM.
Setting [32] is: second compound 1 µM, first compound 0.316 µM.
Setting [33] is: second compound 1 µM, first compound 1 µM.
Where [34] appears, read: second compound 1 µM, first compound 3.16 µM.
The mark [35] stands for this setting: second compound 1 µM, first compound 10 µM.
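Note: spheroids exposed to compounds for 7 days before readout.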

Consider `CC(=O)c1c(C)c2cnc(Nc3ccc(N4CCNCC4)cn3)nc2n(C2CCCC2)c1=O`, for which the viability, T/C is 92.6% and 100% (compound 0.000949 µM); 125% and 99.8% (compound 0.003 µM); 91.4% and 106% (compound 0.00949 µM); 106% and 104% (compound 0.03 µM); 94.1% and 108% (compound 0.0949 µM); 99.7% and 95.6% (compound 0.3 µM). Where the note is “curve of compound”, the IC50 was greater than 300 nM.
Take `Cn1ncnc1[C@H]1c2n[nH]c(=O)c3cc(F)cc(c23)N[C@@H]1c1ccc(F)cc1` + CCN1CCN(Cc2ccc(Nc3ncc(F)c(-c4cc(F)c5nc(C)n(C(C)C)c5c4)n3)nc2)CC1: the IC50 by setting is: under setting [1], greater than 100 nM; under setting [2], greater than 100 nM; under setting [3], greater than 100 nM; under setting [4], 83.8 nM; under setting [5], 1.65 nM. The viability, T/C reads like this: (second compound 0.01 µM, first compound 0.000316 µM) 80.6%; (second compound 0.01 µM, first compound 0.001 µM) 107%; (second compound 0.01 µM, first compound 0.00316 µM) 80.9%; (second compound 0.01 µM, first compound 0.01 µM) 83.6%; under setting [6], 84.1%; under setting [7], 63.7%. Also, the viability, T/C was 84.9% (second compound 0.0316 µM, first compound 0.000316 µM); 82.8% (second compound 0.0316 µM, first compound 0.001 µM); 90.6% (second compound 0.0316 µM, first compound 0.00316 µM); 83.2% (second compound 0.0316 µM, first compound 0.01 µM); 61.3% under setting [8]; 60% under setting [9]. The viability, T/C is 67.7% (second compound 0.1 µM, first compound 0.000316 µM); 81.3% (second compound 0.1 µM, first compound 0.001 µM); 84.9% (second compound 0.1 µM, first compound 0.00316 µM); 83.2% (second compound 0.1 µM, first compound 0.01 µM); 63.1% under setting [10]; 55.2% under setting [11]. Moreover, the viability, T/C runs as follows: (second compound 0.316 µM, first compound 0.000316 µM) 70.8%; (second compound 0.316 µM, first compound 0.001 µM) 77.8%; (second compound 0.316 µM, first compound 0.00316 µM) 69.8%; (second compound 0.316 µM, first compound 0.01 µM) 79.1%; under setting [12], 59.2%; under setting [13], 48.3%. The viability, T/C runs as follows: (second compound 1 µM, first compound 0.000316 µM) 51.5%; (second compound 1 µM, first compound 0.001 µM) 59.2%; (second compound 1 µM, first compound 0.00316 µM) 43.1%; (second compound 1 µM, first compound 0.01 µM) 37.3%; under setting [14], 41.9%; under setting [15], 44.4%.
On to `C=CC(=O)N1CCN(c2nc(=O)n(-c3c(C)ccnc3C(C)C)c3nc(-c4c(O)cccc4F)c(F)cc23)C(C)C1` (configuration not stated) + CCN1CCN(Cc2ccc(Nc3ncc(F)c(-c4cc(F)c5nc(C)n(C(C)C)c5c4)n3)nc2)CC1, for which the half-maximal inhibitory concentration (IC50) under setting [1] worked out at 7370 nM; the 50% inhibitory concentration (IC50) under setting [2] amounted to 7290 nM; the half-inhibitory concentration (IC50) under setting [3] came to 7020 nM; the half-maximal inhibitory concentration (IC50) under setting [4] was determined as 4110 nM; the IC50 under setting [5] was determined as 143 nM. Further, the viability, T/C under setting [6] is 102%; the viability, T/C under setting [7] was 108%; the viability, T/C under setting [16] is 105%; the viability, T/C under setting [17] is 119%; the viability, T/C under setting [18] was 91%; the viability, T/C under setting [19] is 35.2%. Moreover, the viability, T/C is 91.2% under setting [8]; 107% under setting [9]; 104% under setting [20]; 107% under setting [21]; 108% under setting [22]; 29.7% under setting [23]. Besides, the viability, T/C is, setting by setting: under setting [10], 94.1%; under setting [11], 109%; under setting [24], 103%; under setting [25], 124%; under setting [26], 94.4%; under setting [27], 30.1%. Moreover, the viability, T/C is 85.3% under setting [12]; 93.3% under setting [13]; 108% under setting [28]; 106% under setting [29]; 56.4% under setting [30]; 28.1% under setting [31]. Moreover, the viability, T/C by setting is: under setting [14], 50.1%; under setting [15], 50.2%; under setting [32], 51.6%; under setting [33], 42%; under setting [34], 34.2%; under setting [35], 17.6%.
On to `CC(C)(C)c1cnc(CSc2cnc(NC(=O)C3CCNCC3)s2)o1`, for which the viability, T/C by setting is: (compound 0.00949 µM) 104% and 105%; (compound 0.03 µM) 116% and 106%; (compound 0.0949 µM) 62.5% and 81%; (compound 0.3 µM) 2.65% and 4.27%; (compound 0.949 µM) 3.19% and 3.08%; (compound 3 µM) 4.63% and 2.13%. The IC50 (curve of compound) is 121 nM and 151 nM.
As for `Cn1ncc(Cl)c1-c1cc(C(=O)NC(CN)Cc2cccc(F)c2)sc1Cl` (configuration not stated) + CCN1CCN(Cc2ccc(Nc3ncc(F)c(-c4cc(F)c5nc(C)n(C(C)C)c5c4)n3)nc2)CC1, the half-inhibitory concentration (IC50) under setting [1] came out at 1610 nM; the IC50 under setting [2] was 1800 nM; the concentration for half-maximal inhibition (IC50) under setting [3] was 1540 nM; the half-maximal inhibitory concentration (IC50) under setting [4] was 1170 nM; the IC50 under setting [5] was determined as 402 nM. The viability, T/C under setting [6] was 96%; the viability, T/C under setting [7] is 81.6%; the viability, T/C under setting [16] was 64.2%; the viability, T/C under setting [17] was 60.7%; the viability, T/C under setting [18] was 44.3%; the viability, T/C under setting [19] is 0.26%. The viability, T/C by setting is: under setting [8], 85.4%; under setting [9], 78.5%; under setting [20], 79.1%; under setting [21], 56.9%; under setting [22], 41.1%; under setting [23], 0.2%. The viability, T/C is, setting by setting: under setting [10], 91.4%; under setting [11], 82.2%; under setting [24], 63.9%; under setting [25], 54.2%; under setting [26], 47.1%; under setting [27], 0.18%. The viability, T/C by setting is: under setting [12], 88.5%; under setting [13], 92.3%; under setting [28], 54.8%; under setting [29], 60.6%; under setting [30], 31.5%; under setting [31], 12.4%. Further, the viability, T/C was 56.7% under setting [14]; 54.3% under setting [15]; 50.5% under setting [32]; 44.7% under setting [33]; 25.6% under setting [34]; 0.54% under setting [35].
In the case of `Cn1ncnc1[C@H]1c2n[nH]c(=O)c3cc(F)cc(c23)N[C@@H]1c1ccc(F)cc1`, the viability, T/C runs as follows: (compound 0.000316 µM) 120% and 97.9%; (compound 0.001 µM) 106% and 94.6%; (compound 0.00316 µM) 91.1% and 85.3%; (compound 0.01 µM) 76.8% and 86.8%; (compound 0.0316 µM) 73.8% and 78.4%; (compound 0.1 µM) 68% and 62.8%. Besides, the IC50 (curve of compound) is greater than 100 nM.
For `CCN1CCN(Cc2ccc(Nc3ncc(F)c(-c4cc(F)c5nc(C)n(C(C)C)c5c4)n3)nc2)CC1`, the viability, T/C (compound 1 µM) was 52.7% [middle of 13 runs].

As a reminder, the viability, T/C is the ratio of treated to control. As a reminder, the IC50 is the point on the concentration scale where inhibition reaches its midpoint.
